What was measured:
Type in all cases: cell-based
[1] = molecular target: CXCR3 (Homo sapiens (Human), UniProt P49682); experiment: Receptor internalization assay in human whole blood (CXCR3 surface expression on CD4 positive cells, CXCL10); conditions: final CXCL10 9 nM, 30 min at 37° C., mean values
Description: Diluted compounds are then mixed with an equal volume of CXCL10 (Peprotech) diluted in PBS. Anticoagulated venous human whole blood is added to the mixture, which is then incubated in a CO2 incubator at 37° C. to allow for ligand mediated receptor internalization (final CXCL10 concentration is 9 nM). After 30 min, the blood is mixed with fluorescently labeled CXCR3 and CD4 specific antibodies (Becton Dickinson) and incubated on ice for 10 minutes. Samples are then mixed with BD FACS Lysing Solution (Becton Dickinson) in order to eliminate red blood cells. After washing the cells with PBS containing 0.5% BSA, the samples are then analyzed in a flow cytometer (FACS Canto II, Becton Dickinson). For data analysis using FACSDiva software (Becton Dickinson), the mean fluorescence corresponding to CXCR3 cell surface expression was determined on CD4 positive cells. The program GraphPad Prism or similar software is used to fit the data to a single site dose response curve and to calculate IC50 values.
(§1) In the case where IC50 values have been determined several times for the same compound, mean values are given.

[2] = molecular target: hERG K channel (Homo sapiens (Human), UniProt Q12809); experiment: hERG Q-Patch assay; conditions: CHO cells expressing hERG, K+ tail current 3 min after application, mean of two or three experiments
Description: Compounds are evaluated for block of the hERG K channel using CHO cells stably expressing the hERG gene (accession number U04270, bSys, Witterswil, Switzerland) and the QPatch robotic platform (Sophion, Ballerup, Denmark) in single-cell mode at room temperature. Cells are grown in culture flasks at 37° C. in 5% CO2, in culture medium (Ham's F-12 Nutrient Mixture, Invitrogen 21765-029) supplemented with 9% (v/v) fetal calf serum, 0.9% Penicillin/Streptomycin (10,000 U/mL, Invitrogen 15140148), 100 μg/mL Hygromycin B (Invitrogen 10687010). When the cells are ˜80% confluent (every 2-3 days), they are either split for further culture or used for electrophysiology. For further culture, cells are detached with 0.25% Trypsin EDTA solution (Invitrogen 25200-056) and a fraction of the cells (10-30%) is reseeded in culture medium. For electrophysiology, on the experimental day, cells are detached with 0.25% Trypsin EDTA solution and all cells are suspended in suspension medium (293 SFM II, Invitrogen 11686-029) supplemented with 20 mM HEPES and 0.04 mg/mL Trypsin inhibitor. Cells are kept in suspension medium at 32-35° C. in the QPatch robot until use, at which time aliquots are transferred to the extracellular solution (in mM: NaCl 150; KCl 4; CaCl2 1.2; MgCl2 1; HEPES 10; pH 7.4 with NaOH) containing 0.3% v/v DMSO and applied to the test plates. K^+ currents are measured with the patch-voltage-clamp technique in the whole-cell configuration with the internal solution (in mM: KCl, 140; NaCl, 10; MgCl2, 1; HEPES, 10: EGTA, 5; pH=7.2 with KOH). Currents are low-pass filtered using the internal Bessel filter of the QPatch robot with a cut-off frequency of 2 kHz and are digitized at 10 kHz. K^+ tail currents are produced from a holding voltage of −80 mV by a 500-ms depolarization to +20 mV followed by a 500-ms repolarization to −40 mV; tail current amplitudes are measured at the end of the repolarization to −40 mV. The pulse pattern is repeated every 10 sec during the experiment, baseline K^+ current is measured after 3 min in extracellular solution, test-solution containing compound is then applied, and K^+ current in presence of compound is measured 3 minutes after application to the cells. The respective test-solution is prepared by (1) dissolving the test-compound in pure DMSO, (2) diluting this DMSO solution in extracellular solution, and (3) adding further DMSO, such that the final test-solution has a concentration of either 300 nM or 3000 nM of the test-compound and contains 0.3% v/v DMSO. Compound effects are quantified as % block by dividing the current in presence of compound by the baseline current; two or three experiments are performed for each compound and the final value represents the mean of the results of each experiment.

[3] = molecular target: human CXCR3A (Homo sapiens (Human), UniProt P49682); experiment: FLIPR assay (CXCL10-induced calcium signal); conditions: CHO-K1 cells expressing human CXCR3A coupled to Galpha(16); CXCL10 agonist 20 nM; mean values
From the text: as §1

Sequence of human CXCR3A (P49682 whole entry): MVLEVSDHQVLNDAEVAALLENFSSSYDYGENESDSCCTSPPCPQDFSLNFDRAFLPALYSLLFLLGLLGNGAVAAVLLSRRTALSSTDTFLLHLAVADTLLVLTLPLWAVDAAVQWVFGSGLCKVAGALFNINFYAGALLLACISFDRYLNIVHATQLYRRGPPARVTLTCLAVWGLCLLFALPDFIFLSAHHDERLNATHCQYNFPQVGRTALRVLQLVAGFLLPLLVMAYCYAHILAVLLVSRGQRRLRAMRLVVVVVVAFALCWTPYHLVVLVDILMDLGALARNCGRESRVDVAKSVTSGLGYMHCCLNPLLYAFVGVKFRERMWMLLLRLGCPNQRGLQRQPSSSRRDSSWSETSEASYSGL
Sequence of CXCR3 (P49682 whole entry): as above
Sequence of hERG K channel (Q12809 whole entry): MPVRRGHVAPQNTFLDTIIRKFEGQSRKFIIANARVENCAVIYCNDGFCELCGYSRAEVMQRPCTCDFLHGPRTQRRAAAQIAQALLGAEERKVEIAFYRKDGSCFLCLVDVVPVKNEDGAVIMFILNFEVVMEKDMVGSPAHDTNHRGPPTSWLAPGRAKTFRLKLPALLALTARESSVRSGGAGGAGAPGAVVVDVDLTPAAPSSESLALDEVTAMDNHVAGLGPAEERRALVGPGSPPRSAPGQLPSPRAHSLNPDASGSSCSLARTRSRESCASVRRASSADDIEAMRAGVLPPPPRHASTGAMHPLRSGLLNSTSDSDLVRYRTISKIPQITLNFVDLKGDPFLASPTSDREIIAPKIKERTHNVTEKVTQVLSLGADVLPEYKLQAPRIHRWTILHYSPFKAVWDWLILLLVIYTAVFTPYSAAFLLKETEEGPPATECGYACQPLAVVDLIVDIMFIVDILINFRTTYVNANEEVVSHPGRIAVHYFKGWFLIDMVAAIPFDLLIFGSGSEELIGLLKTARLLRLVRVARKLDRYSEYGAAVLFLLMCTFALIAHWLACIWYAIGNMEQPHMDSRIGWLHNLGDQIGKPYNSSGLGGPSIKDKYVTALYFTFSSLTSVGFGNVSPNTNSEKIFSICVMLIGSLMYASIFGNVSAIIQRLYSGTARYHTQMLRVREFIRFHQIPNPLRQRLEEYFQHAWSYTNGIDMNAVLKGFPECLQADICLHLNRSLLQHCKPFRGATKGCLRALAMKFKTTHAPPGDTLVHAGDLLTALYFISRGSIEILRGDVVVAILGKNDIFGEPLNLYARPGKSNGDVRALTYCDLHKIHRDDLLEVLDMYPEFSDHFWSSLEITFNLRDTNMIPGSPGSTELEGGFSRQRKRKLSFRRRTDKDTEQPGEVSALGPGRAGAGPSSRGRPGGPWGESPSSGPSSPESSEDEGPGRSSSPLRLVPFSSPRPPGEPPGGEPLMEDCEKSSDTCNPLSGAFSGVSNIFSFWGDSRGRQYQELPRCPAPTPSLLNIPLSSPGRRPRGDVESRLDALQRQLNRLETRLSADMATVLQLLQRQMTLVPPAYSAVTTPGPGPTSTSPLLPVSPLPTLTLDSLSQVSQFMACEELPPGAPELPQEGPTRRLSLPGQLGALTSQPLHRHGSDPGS

SMILES	IC50 [1]	IC50 [3]	% block ([2]; concentration 300 nM)	% block ([2]; concentration 3000 nM)
Cc1nc(-c2ncn(CC(=O)N3CCN(c4sc(C(F)(F)F)nc4-c4cnc(C(F)(F)F)nc4)C[C@@H]3CO)n2)no1 [Example 18, 1-{(R)-2-Hydroxymethyl-4-[2-trifluoromethyl-4-(2-trifluoromethyl-pyrimidin-5-yl)-thiazol-5-yl]-piperazin-1-yl}-2-[3-(5-methyl-[1,2,4]oxadiazol-3-yl)-[1,2,4]triazol-1-yl]-ethanone]	6500 nM	510 nM	6%	13%
O=C(Cn1ccc2cc(F)ccc21)N1CCN(c2sc(C(F)(F)F)nc2-c2cnc(C(F)(F)F)nc2)C[C@@H]1CO [Example 14, 2-(5-Fluoro-indol-1-yl)-1-{(R)-2-hydroxymethyl-4-[2-trifluoromethyl-4-(2-trifluoromethyl-pyrimidin-5-yl)-thiazol-5-yl]-piperazin-1-yl}-ethanone]	199 nM	0.7 nM	14%	62%
CC(C)c1ncn(CC(=O)N2CCN(c3sc(C(F)(F)F)nc3-c3cnc(C(F)(F)F)nc3)C[C@H]2CO)n1 [Example 4, 1-{(S)-2-Hydroxymethyl-4-[2-trifluoromethyl-4-(2-trifluoromethyl-pyrimidin-5-yl)-thiazol-5-yl]-piperazin-1-yl}-2-(3-isopropyl-[1,2,4]triazol-1-yl)-ethanone]	283 nM	1.8 nM	4%	13%
Cc1ncn(CC(=O)N2CCN(c3sc(C(F)(F)F)nc3-c3cnc(C(F)(F)F)nc3)C[C@@H]2CO)n1 [Example 16, 1-{(R)-2-Hydroxymethyl-4-[2-trifluoromethyl-4-(2-trifluoromethyl-pyrimidin-5-yl)-thiazol-5-yl]-piperazin-1-yl}-2-(3-methyl-[1,2,4]triazol-1-yl)-ethanone]	542 nM	3.9 nM	1%	1%
Cc1nc(C)n(CC(=O)N2CCN(c3sc(C(F)(F)F)nc3-c3cnc(C(F)(F)F)nc3)C[C@H]2CCO)n1 [Example 27, 2-(3,5-Dimethyl-[1,2,4]triazol-1-yl)-1-{(R)-2-(2-hydroxy-ethyl)-4-[2-trifluoromethyl-4-(2-trifluoromethyl-pyrimidin-5-yl)-thiazol-5-yl]-piperazin-1-yl}-ethanone]	235 nM	5.2 nM	1%	4%
COc1ccc2c(ccn2CC(=O)N2CCN(c3sc(C(F)(F)F)nc3-c3cnc(C(F)(F)F)nc3)C[C@@H]2CO)c1 [Example 15, 1-{(R)-2-Hydroxymethyl-4-[2-trifluoromethyl-4-(2-trifluoromethyl-pyrimidin-5-yl)-thiazol-5-yl]-piperazin-1-yl}-2-(5-methoxy-indol-1-yl)-ethanone]	1660 nM	2.3 nM	8%	35%
O=C(Cn1cnc2ccccc21)N1CCN(c2sc(C(F)(F)F)nc2-c2cnc(C(F)(F)F)nc2)C[C@@H]1CO [Example 13, 2-Benzoimidazol-1-yl-1-{(R)-2-hydroxymethyl-4-[2-trifluoromethyl-4-(2-trifluoromethyl-pyrimidin-5-yl)-thiazol-5-yl]-piperazin-1-yl}-ethanone]	1050 nM	1.2 nM	5%	17%
O=C(Cn1cnc(-c2ccccc2)n1)N1CCN(c2sc(C(F)(F)F)nc2-c2cnc(C(F)(F)F)nc2)C[C@@H]1CO [Example 19, 1-{(R)-2-Hydroxymethyl-4-[2-trifluoromethyl-4-(2-trifluoromethyl-pyrimidin-5-yl)-thiazol-5-yl]-piperazin-1-yl}-2-(3-phenyl-[1,2,4]triazol-1-yl)-ethanone]	3310 nM	42 nM	6%	41%

Molecules with a lower IC50 [1], results first:

IC50 [1]	IC50 [3]	SMILES	% block ([2]; concentration 300 nM)	% block ([2]; concentration 3000 nM)
191 nM	3 nM	O=C(Cn1cnc(C2CC2)n1)N1CCN(c2sc(C(F)(F)F)nc2-c2cnc(C(F)(F)F)nc2)C[C@H]1CO [Example 3, 2-(3-Cyclopropyl-[1,2,4]triazol-1-yl)-1-{(S)-2-hydroxymethyl-4-[2-trifluoromethyl-4-(2-trifluoromethyl-pyrimidin-5-yl)-thiazol-5-yl]-piperazin-1-yl}-ethanone]	0%	12%
157 nM	5.5 nM	O=C(Cn1cnc(C2CCC2)n1)N1CCN(c2sc(C(F)(F)F)nc2-c2cnc(C(F)(F)F)nc2)C[C@H]1CCO [Example 29, 2-(3-Cyclobutyl-[1,2,4]triazol-1-yl)-1-{(R)-2-(2-hydroxy-ethyl)-4-[2-trifluoromethyl-4-(2-trifluoromethyl-pyrimidin-5-yl)-thiazol-5-yl]-piperazin-1-yl}-ethanone]	4%	38%
105 nM	1.6 nM	Cc1ccn(CC(=O)N2CCN(c3sc(C(F)(F)F)nc3-c3cnc(C(F)(F)F)nc3)C[C@@H]2CO)n1 [Example 22, 1-{(R)-2-Hydroxymethyl-4-[2-trifluoromethyl-4-(2-trifluoromethyl-pyrimidin-5-yl)-thiazol-5-yl]-piperazin-1-yl}-2-(3-methyl-pyrazol-1-yl)-ethanone]	4%	15%
102 nM	2.9 nM	Cc1ncn(CC(=O)N2CCN(c3sc(C(F)(F)F)nc3-c3cnc(C(F)(F)F)nc3)C[C@H]2CCO)n1 [Example 35, 1-{(R)-2-(2-Hydroxy-ethyl)-4-[2-trifluoromethyl-4-(2-trifluoromethyl-pyrimidin-5-yl)-thiazol-5-yl]-piperazin-1-yl}-2-(3-methyl-[1,2,4]triazol-1-yl)-ethanone]	11%	25%
59.7 nM	1 nM	Cc1ccn(CC(=O)N2CCN(c3sc(C(F)(F)F)nc3-c3cnc(C(F)(F)F)nc3)C[C@H]2CO)n1 [Example 42, 1-{(S)-2-Hydroxymethyl-4-[2-trifluoromethyl-4-(2-trifluoromethyl-pyrimidin-5-yl)-thiazol-5-yl]-piperazin-1-yl}-2-(3-methyl-pyrazol-1-yl)-ethanone]	2%	15%

From US10053457B2, “Hydroxyalkyl-piperazine derivatives as CXCR3 receptor modulators” (IDORSIA PHARMACEUTICALS LTD, priority 2015, dated 2018)
